Measured values: US5321041A, “Diphenylpyrrolylfuran derivatives” (Nihon Iyakuhin Kogyo Co., Ltd., priority 1992, dated 1994)
Like-named read-outs stand apart in the source and are kept apart here.

Columns and labels:
[1] = test system: auricle edema induced by oxazolone; assay: Effect on auricle edema induced by oxazolone (delayed allergy); type: in vivo, ICR mice; conditions: mouse, oral, 10 mg/kg × 2 (30 minutes before, 6 hours after), 24 hours
Protocol: EXPERIMENT 6: EFFECT ON AURICLE EDEMA INDUCED BY OXAZOLONE (DELAYED ALLERGY)
[…]. The mice were sensitized by the application of 0.1 ml of 0.5% oxazolone in ethanol to shaven abdominal skin. Five days later, inflammation was induced by applying 10 μl of 0.5% oxazolone in acetone to front and back surfaces Of the right auricle. After 24 hours, the thicknesses of the left and right auricles were measured by a dial gauge, and the rate of edema of the right auricle was calculated in comparison with the left auricle (normal). A test drug was suspended in 0.5% CMC--Na and orally administered twice to each mouse , i.e., 30 minutes before and 6 hours after the inflammation-inducing treatment. Inhibitory rate of each drug-treated group against edema was calculated in comparison with the solvent-treated control.

[2] = test system: ddY mice; assay: Acute toxicity; type: in vivo; conditions: mouse, oral, 600 mg/kg, observed for 2 weeks
Description: EXPERIMENT 9: ACUTE TOXICITY

[3] = test system: paw edema induced by carageenin; assay: Inhibitory activity on paw edema induced by carageenin; type: in vivo, Wistar rats; conditions: rat, oral, 10 mg/kg, 3 hours after carageenin
Protocol: EXPERIMENT 4: INHIBITORY ACTIVITY ON PAW EDEMA INDUCED BY CARAGEENIN
Wistar rats (body weight: 110-130 g) starved overnight were orally administered with a test drug suspended in 0.5% CMC-Na, and after one hour, 0.1 ml of 1% carageenin solution (picnin-A, Zushi Kagaku) was subcutaneously injected into the right hind leg paw of each rat. Three hours later, the volume of the paw was determined by means of a plethysmometer (Model 7150, Ugo Basile Co.,Ltd.) and the rate of edema was evaluated in comparison with the volume of the paw before the carageenin injection as 100%. Inhibitory rate of each drug-treated group against edema formation was calculated in comparison with the solvent-treated control.

[4] = test system: platelet aggregation (platelet rich plasma); assay: Inhibitory activity on platelet aggregation; type: cell-based, Japanese native white domestic rabbits; conditions: Oryctolagus cuniculus, rabbit PRP, 37° C.
Protocol: EXPERIMENT 8: INHIBITORY ACTIVITY ON PLATELET AGGREGATION
Blood of Japanese native white domestic rabbits was taken into a plastic centrifugal tube added with 1/10 in volume of 3.8% sodium citrate solution, and then, platelet rich plasma (PRP) containing 5 to 6×10^8 /ml platelets was obtained by centrifugation for 10 minutes. under 120×G. To 450 μl of the PRP, 25 μl of a solution containing the test drug (Compound 109) dissolved at a desired concentration was added.

[5] = molecular target: T1, 5-lipoxygenase (Cavia porcellus, UniProt A0A286X958); assay: Inhibitory activity on 5-lipoxygenase; type: biochemical, guinea pigs; conditions: 5-HETE generation, 20 μM 14C-arachidonic acid, pH 7.4, 37° C., 10 minutes
T1 construct: crude enzyme fraction prepared from peritoneal exudated cells of guinea pigs; endogenous in cells; host or cells: guinea pig peritoneal exudate cells (induced by intraperitoneal casein), crude enzyme fraction
T1 sequence (A0A286X958 1-674): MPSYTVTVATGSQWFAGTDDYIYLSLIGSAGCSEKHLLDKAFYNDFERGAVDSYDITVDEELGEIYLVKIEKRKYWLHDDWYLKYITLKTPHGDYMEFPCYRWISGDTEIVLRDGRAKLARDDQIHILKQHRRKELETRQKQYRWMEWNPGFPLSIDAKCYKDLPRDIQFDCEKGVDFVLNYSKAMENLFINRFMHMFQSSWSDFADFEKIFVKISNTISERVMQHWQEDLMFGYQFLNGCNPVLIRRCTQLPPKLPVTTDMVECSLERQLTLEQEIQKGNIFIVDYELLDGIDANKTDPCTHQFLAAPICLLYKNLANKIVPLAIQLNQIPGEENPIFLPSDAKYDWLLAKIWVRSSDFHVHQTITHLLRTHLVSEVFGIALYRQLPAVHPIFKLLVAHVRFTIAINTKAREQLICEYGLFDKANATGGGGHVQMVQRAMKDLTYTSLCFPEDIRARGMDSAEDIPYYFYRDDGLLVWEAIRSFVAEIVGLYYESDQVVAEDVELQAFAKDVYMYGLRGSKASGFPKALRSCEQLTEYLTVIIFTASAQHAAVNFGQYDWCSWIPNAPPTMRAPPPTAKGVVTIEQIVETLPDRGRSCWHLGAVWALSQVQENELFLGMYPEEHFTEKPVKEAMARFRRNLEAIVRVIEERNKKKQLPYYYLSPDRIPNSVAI
Protocol: EXPERIMENT 2: INHIBITORY ACTIVITY ON 5-LIPOXYGENASE
5-Lipoxygenase activity was determined according to the method described by Ochi et al., J. Biol. Chem.,258, p. 5754, 1983 using a crude enzyme fraction prepared from peritoneal exudated cells of guinea pigs which were induced by intraperitoneal injection of 2% case in solution. A solution of a test drug was mixed with a reaction solution (2mM ATP, 1 mM glutathione,and the enzyme fraction in 50 mM phosphate buffer, PH 7.4) and the mixture was pre-incubated at 37° C. for 5 minutes. Calcium chloride (1 mM) and 20 μM^14 C-arachidonic acid were added to the mixture, and then the mixture was subjected to a reaction at 37° C. for 10 minutes. After the completion of the reaction, the product was immediately extracted, dissolved in chloroform/methanol (2:1), and developed by thin-layer chromatography. Radioactivity of the 5-hydroxyeicosatetraenoic acid (5-HETE) fraction was measured using a liquid scintillation counter. Inhibitory rate of each drug-treated group against 5-HETE generation was obtained in comparison with the solvent-treated control, and IC50 was calculated according to the probit method.

[6] = test system: lipid peroxidation (crude homogenate prepared from brain tissues of Wistar rats); assay: Inhibitory activity on lipid peroxidation (anti-oxidation activity); type: biochemical; conditions: rat brain homogenate, 37° C., 30 minutes; malondialdehyde, 532 nm
Protocol: EXPERIMENT 1: INHIBITORY ACTIVITY ON LIPID PEROXIDATION (ANTI-OXIDATION ACTIVITY)
The captioned activity was evaluated according to the method described by Kakihana et al., Nihon Yakurigaku Zasshi (Folia Pharmacologica Japonica), 80, p. 225, 1982. To a 1 ml of a crude homogenate prepared from brain tissues of Wistar rats, 10 μl of a solution of test drug in dimethyl sulfoxide was added, and after pre-incubation under ice-cooling for 10 minutes, the mixture was subjected to a reaction at 37° C. for 30 minutes. The reaction was stopped by adding 200 μl of 35% perchloric acid to the mixture and then the mixture was centrifuged. To a 1 ml of the supernatant obtained, 0.5 ml of 0.5% thiobarbituric acid was added and the mixture was heated under a boiling water bath for 15 minutes. The mixture was cooled to room temperature and absorbance of the mixture at 532 nm was measured. The inhibitory rate was obtained using the amount of malondialdehyde generated by the solvent-treated control, which equals to 100%, and 50% median inhibitory concentration (IC50) was calculated according to the probit method as indexes of anti-oxidation activity.

[7] = test system: auricle edema induced by arachidonic acid; assay: Inhibitory activity on auricle edema induced by arachidonic acid; type: in vivo, ddY mice; conditions: mouse, oral, 30 mg/kg, 1 hour after arachidonic acid
Protocol: EXPERIMENT 5: INHIBITORY ACTIVITY ON AURICLE EDEMA INDUCED BY ARACHIDONIC ACID
[…]. Dermatol. 82, p. 367, 1984. The mice were orally administered with a test drug suspended in 0 5% CMC-Na, and after one hour, 10 μl of arachidonic acid in acetone (50 mg/ml) were applied to front and back surfaces of the left auricles of each mouse. One hours later, the thicknesses of the left and right auricles were measured by means of a dial gauge, and the rate of edema of the left auricle was calculated in comparison with the right auricle (normal). Inhibitory rate of each drug-treated group against edema formation was calculated in comparison with the solvent-treated control.

[8] = test system: granuloma formation; assay: Inhibitory activity on granuloma formation (proliferative inflammation); type: in vivo, Wistar rats; conditions: rat, oral, 10 mg/kg every day for 8 days
Protocol: EXPERIMENT 7: INHIBITORY ACTIVITY ON GRANULOMA FORMATION (PROLIFERATIVE INFLAMMATION)
Evaluation was carried out by using Wistar rats (120-140 g) according to the method described by Fujiyoshi et al., Nihon Yakurigaku Zasshi (Folia Pharmacologica Japonica), 87, p. 379, 1986. Back skin of the rat was lightly incised under anesthesia with pentobarbital, and filter paper discs for antibiotic assay (57 mg, 13.0.phi., Whatman) sterilized by autoclave were embedded under the skin at the both axillae. 0.1 ml of a mixture of streptomycin and penicillin G (each 1 mg/ml) was administered dropwise to the incised site and the incised skin was sutured. From the day of the disc embedment, a test drug suspended in 0.5% CMC--Na was orally administered to the rat every day for 8 days. The rat was sacrificed at the day of last administration and granuloma including the filter paper was extirpated from the circumferential tissue and dried at 110° C. overnight. The dry weight of the granuloma was measured and inhibitory rate of each drug-treated group against granulation formation was calculated in comparison with the solvent-treated control.

| SMILES | Inhibition on Edema (%) [1] [%] | Dead Mice/Total Mice [2] | Inhibition on Edema (%) [3] [%] | IC50 ([4]; arachidonic acid (250 μM), read-out: IC50 against platelet aggregation induced by arachidonic acid) [nM] | IC50 ([4]; collagen (5 μg/ml), read-out: IC50 against platelet aggregation induced by collagen) [nM] | IC50 [5] [nM] | IC50 [6] [nM] | Inhibition on Edema (%) [7] [%] | Inhibition on Granuloma (%) [8] [%] |
| --- | --- | --- | --- | --- | --- | --- | --- | --- | --- |
| CCc1ccc(-c2cc(-c3ccc(OC)cc3)c(-c3ccc(OC)cc3)o2)n1CC(=O)O [Compound 109, 2,3-di-(4-methoxyphenyl)-5-(1-carboxymethyl-5-ethyl-2-pyrrolyl)furan] | 46.8 | 0/5 | 49.5 | 1500 | 13300 | 850 |  |  |  |
| COc1ccc(-c2cc(-c3cc(C(C)C)cn3CC(=O)O)oc2-c2ccc(OC)cc2)cc1 [Compound 188] | 44.2 | 4/5 |  |  |  | 1110 | 2410 | 55.0 | 29.7 |
